PubChem BioAssay (NCI)
Values joined by “and” are separate entries in the source; they are usually repeats but may differ in a detail not shown here. Equal entries are not always repeated.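 Interpolation was linear, between the two tested concentrations surrounding the appropriate level; five concentrations were tested over 48 hours in 96-well plates. The concentration for 50% growth inhibition is given as GI50. At the TGI there is no net growth.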

Tests used:
Assay in all cases: DTP human tumour cell line panel, 48 h
786-0 renal = tested on: 786-0 renal
CAKI-1 renal = tested on: CAKI-1 renal
EKVX NSCLC = tested on: EKVX NSCLC
HCT-15 colon = tested on: HCT-15 colon
HOP-62 NSCLC = tested on: HOP-62 NSCLC
HT29 colon = tested on: HT29 colon
NCI-H23 lung = tested on: NCI-H23 lung
SF-268 CNS = tested on: SF-268 CNS
SF-539 CNS = tested on: SF-539 CNS
SNB-75 CNS = tested on: SNB-75 CNS

Compound	GI50 (786-0 renal)	TGI (786-0 renal)	GI50 (CAKI-1 renal)	TGI (CAKI-1 renal)	GI50 (EKVX NSCLC)	TGI (EKVX NSCLC)	GI50 (HCT-15 colon)	TGI (HCT-15 colon)	GI50 (HOP-62 NSCLC) [µM]	TGI (HOP-62 NSCLC) [µM]	GI50 (HT29 colon) [µM]	TGI (HT29 colon)	GI50 (NCI-H23 lung)	TGI (NCI-H23 lung)	GI50 (SF-268 CNS)	TGI (SF-268 CNS)	GI50 (SF-539 CNS) [µM]	TGI (SF-539 CNS) [µM]	TGI (SNB-75 CNS) [µM]
CCC1=CC2CN(C1)Cc1c([nH]c3ccccc13)[C@@](C(=O)OC)(c1cc3c(cc1OC)N(C)[C@H]1[C@@](O)(C(=O)OC)[C@H](OC(C)=O)[C@]4(CC)C=CCN5CC[C@]31[C@@H]54)C2 (some centres undefined)	0.0514 µM and 0.0773 µM	16.7 µM and > 100 µM	7.86 µM and 6.85 µM	50 µM and > 100 µM	26.7 µM and 45.8 µM	50 µM and > 100 µM	0.277 µM and 0.416 µM	50 µM and > 100 µM	0.0135	43.8	< 0.005	6 µM and 20.9 µM	0.0176 µM and 0.0134 µM	50 µM and > 100 µM	0.122 µM and 0.145 µM	50 µM and 91 µM	0.014	8.44	17.9
CC(C)(Oc1ccc(/C=C/C(=O)c2ccc(Cl)cc2)cc1)C(=O)Nc1c(Cl)cccc1Cl		45.8 µM		48.9 µM		> 100 µM		29.3 µM		> 100		28 µM		40.9 µM		90.2 µM		28.1	97.5
O=C(O)c1ccc(C2C(=O)N[C@@H]3CCC[C@H]23)cc1 (some centres undefined)		> 100 µM		> 100 µM		> 100 µM		> 100 µM		> 100		> 100 µM		> 100 µM		> 100 µM		> 100	> 100
CN(C)CCNC(=O)Cn1ccc(=O)c2c([N+](=O)[O-])cccc21		> 100 µM		> 100 µM		> 100 µM		> 100 µM		> 100		> 100 µM		> 100 µM		> 100 µM		> 100	> 100
NC(=S)NN/C=C(\C=Nc1ccccc1)[N+](=O)[O-]		> 100 µM		> 100 µM		> 100 µM		> 100 µM		> 100		> 100 µM		> 100 µM		> 100 µM		> 100	> 100
